Test results: patent publication US11873291B2, “Quinoline cGAS antagonist compounds” (ImmuneSensor Therapeutics, Inc., priority 2020, dated 2024)
Where two headings read alike, the source gives them in different places.

Key:
[1] = test system: cGAS activity in Reporter THP1 cell line; experiment: Cellular assay to measure cGAS activity: ISRE-Gaussia luciferase reporter THP1 cells transfected with ISD; format: cell-based; details: Homo sapiens
Experimental: Cellular assay to measure cGAS activity: Reporter THP1 cell line harboring a gene encoding Gaussia Luciferase under the control of 5 tandem repeats of interferon-stimulated response elements (ISRE) fused to an ISG54 minimal promoter was used to test inhibition of cGAS activity by synthetic compounds in human cells. These cells were plated on 96-well plates at 0.3×10^6/well and incubated with serial dilutions of compounds or DMSO for 5 min, followed by transfection of 2 μg/mL of ISD (Interferon Stimulatory DNA, a 45 bp DNA oligo) or mock transfected using lipofectamine 2000 (Life Technology) method, according to manufacturer's instructions. 16 hours later, 15 μL of the media from each well was transferred to a new plate, 50 μL of solution containing 50 mM Hepes-NaOH, pH 6.5, 50 mM NaCl, 10 mM EDTA, 1 μM of coelenterazine was added to each well and luminescence was measured immediately. Fold increase in luminescence compared to mock transfection was plotted against concentrations of each compound, and IC50 is calculated using Graphpad. To evaluate the specificity of a compound, the same procedure was performed except that cells were transfected with 2 μg/mL poly(I:C) or infected with Sendai Virus (SeV) at 50 Unit/mL, which are known to activate the RIG-I-MAVS pathway. A specific inhibitory compound should inhibit interferon induction by DNA but have minimal effect on poly(I:C) or Sendai virus induced interferon reporter gene expression.
The letter codes for cGAS IC50 include: A (<2 μM); B (2-10 μM); C (>10 μM).

[2] = biological target: T1, recombinant human cGAS (aa147-522) (Homo sapiens, UniProt Q8N884); experiment: In vitro inhibition assay of cGAS activity (ATP consumption, KinaseGlo Max); format: biochemical
T1 construct: recombinant human cGAS (aa147-522); His6-SUMO (cleaved yes); made in house; host or cells: E. coli BL21/pLys
Summary of the method: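 De-tagged recombinant human cGAS (aa147-522, 1.5 μg/mL) was incubated 20 min at 37 °C with herring testis DNA, 6.6 μM ATP and 0.1 mM GTP in Tris pH 7.5/MgCl2 buffer plus serial compound dilutions. Remaining ATP was read by KinaseGlo Max luminescence, and IC50 was fitted from % ATP consumption versus log concentration.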

[3] = THP-1, untitled table after Table 4 (continuation)
[4] = Table 3, read-out: cGAS Inhibition Results IC50
[5] = THP-1, Table 4, Gaussia luciferase
[6] = Table 2, read-out: cGAS Inhibition Results IC50

T1 sequence (Q8N884 147-522): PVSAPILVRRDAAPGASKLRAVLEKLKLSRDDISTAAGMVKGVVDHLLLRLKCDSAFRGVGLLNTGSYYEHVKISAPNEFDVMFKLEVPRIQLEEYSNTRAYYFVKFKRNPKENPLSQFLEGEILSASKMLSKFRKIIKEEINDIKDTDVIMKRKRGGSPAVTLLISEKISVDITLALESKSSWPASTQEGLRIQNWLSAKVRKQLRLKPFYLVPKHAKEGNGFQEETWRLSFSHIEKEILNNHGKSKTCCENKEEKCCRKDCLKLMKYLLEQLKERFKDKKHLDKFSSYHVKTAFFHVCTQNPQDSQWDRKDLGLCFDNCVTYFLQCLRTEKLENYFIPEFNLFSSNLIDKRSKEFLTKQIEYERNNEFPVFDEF

| Compound | IC50 [1, 3] | IC50 [2, 4] | IC50 [1, 5] | IC50 [2, 6] |
| --- | --- | --- | --- | --- |
| O=C1OCC2CCN(c3cc(-n4ccnc4)c4ccc(Cl)c(Cl)c4n3)C12 (centres unmarked) [I-775, 1-(7,8-dichloro-4-(1H-imidazol-1-yl)quinolin-2-yl)hexahydro-6H-furo[3,4-b]pyrrol-6-one] | 2000 to 10000 nM | < 2000 nM | – | – |
| O=C(O)CCOCCN(Cc1ccccc1)c1cc(-n2ccnc2)c2ccc(Cl)c(Cl)c2n1 [I-837] | < 2000 nM | < 2000 nM | – | – |
| O=C(O)c1noc(CCNc2cc(-n3ccnc3)c3ccc(Cl)c(Cl)c3n2)n1 [I-882] | > 10000 nM | < 2000 nM | – | – |
| O=C(O)COC[C@@H]1CN(c2cc(-n3ccnc3)c3ccc(Cl)c(Cl)c3n2)CCO1 [I-742] | – | < 2000 nM | > 10000 nM | – |
| COC(=O)[C@@H]1C[C@H](C)CN1c1cc(-n2ccnc2)c2ccc(Cl)c(Cl)c2n1 [I-586] | – | 2000 to 30000 nM | < 2000 nM | – |
| CCN(CCOCCC(=O)O)c1cc(-n2ccnc2)c2ccc(Cl)c(Cl)c2n1 [I-832] | < 2000 nM | < 2000 nM | – | – |
| COC(=O)Cc1cc(F)cc(CNc2cc(-n3ccnc3)c3ccc(Cl)c(Cl)c3n2)c1 [I-890, methyl 2-(3-(((7,8-dichloro-4-(1H-imidazol-1-yl)quinolin-2-yl)amino)methyl)-5-fluorophenyl)acetate] | < 2000 nM | 2000 to 30000 nM | – | – |
| CN(CCOCCC(=O)O)c1cc(-n2ccnc2)c2ccc(Cl)c(Cl)c2n1 [I-694] | – | < 2000 nM | < 2000 nM | – |
| COC(=O)[C@@H]1[C@@H](OC(C)=O)CCN1c1cc(-n2ccnc2)c2ccc(Cl)c(Cl)c2n1 [I-642, methyl (2S,3S)-3-acetoxy-1-(7,8-dichloro-4-(1H-imidazol-1-yl)quinolin-2-yl)pyrrolidine-2-carboxylate] | – | 2000 to 30000 nM | < 2000 nM | – |
| O=C(O)CNC(=O)C[C@@H]1[C@@H](O)CCN1c1cc(-n2ccnc2)c2ccc(Cl)c(Cl)c2n1 [I-788, (2-((2R,3S)-1-(7,8-dichloro-4-(1H-imidazol-1-yl)quinolin-2-yl)-3-hydroxypyrrolidin-2-yl)acetyl)glycine] | > 10000 nM | < 2000 nM | – | – |
| O=C(O)CCOC[C@@H]1C[C@@H](N2CCOCC2)CN1c1cc(-n2ccnc2)c2ccc(Cl)c(Cl)c2n1 [I-799] | > 10000 nM | < 2000 nM | – | – |
| COC(=O)CCOC[C@@H]1[C@@H](O)CCN1c1cc(-n2ccnc2)c2ccc(Cl)c(Cl)c2n1 [I-701] | – | < 2000 nM | 2000 to 10000 nM | – |
| O=C(O)CCOCCNc1cc(-n2ccnc2)c2ccc(Cl)c(Cl)c2n1 [I-693] | – | < 2000 nM | > 10000 nM | – |
| CCOC(=O)CNC(=O)C[C@@H]1[C@@H](O)CCN1c1cc(-n2ccnc2)c2ccc(Cl)c(Cl)c2n1 [I-787, ethyl (2-((2R,3S)-1-(7,8-dichloro-4-(1H-imidazol-1-yl)quinolin-2-yl)-3-hydroxypyrrolidin-2-yl)acetyl)glycinate] | 2000 to 10000 nM | < 2000 nM | – | – |
| O=C(O)[C@@H]1[C@H]2CC[C@H](C2)N1c1cc(-n2ccnc2)c2ccc(Cl)c(Cl)c2n1 [I-516] | – | < 2000 nM | > 10000 nM | – |
| COC(=O)[C@@H]1[C@H](O)CCN1c1cc(-n2ccnc2)c2ccc(Cl)c(Cl)c2n1 [I-597] | – | 2000 to 30000 nM | > 10000 nM | – |
| COC(=O)[C@H]1CCCN1C(=O)C[C@@H]1CCCN1c1cc(-n2ccnc2)c2ccc(Cl)c(Cl)c2n1 [I-532] | – | 2000 to 30000 nM | 2000 to 10000 nM | – |
| O=C(O)CCOCCN(c1cc(-n2ccnc2)c2ccc(Cl)c(Cl)c2n1)C1CCCCC1 [I-836] | < 2000 nM | < 2000 nM | – | – |
| COc1ccc(-c2cc(-n3ccnc3)c3ccc(Cl)c(Cl)c3n2)cc1C(=O)O [I-39] | – | – | 2000 to 10000 nM | < 2000 nM |
| O=C(O)CCOCc1cc(Cl)cc(-c2cc(-n3ccnc3)c3ccc(Cl)c(Cl)c3n2)c1 [I-879] | < 2000 nM | < 2000 nM | – | – |
| NS(=O)(=O)CCNc1cc(-n2ccnc2)c2ccc(Cl)c(Cl)c2n1 [I-200] | – | – | < 2000 nM | < 2000 nM |
| O=C(O)[C@@H]1C[C@@H](F)CN1c1cc(-n2ccnc2)c2ccc(Cl)c(Cl)c2n1 [I-322] | – | – | > 10000 nM | < 2000 nM |

Next, values leading:

| IC50 [1, 3] | IC50 [2, 4] | IC50 [1, 5] | IC50 [2, 6] | Compound |
| --- | --- | --- | --- | --- |
| – | 2000 to 30000 nM | 2000 to 10000 nM | – | COC(=O)CC[C@@H]1CCCN1c1cc(-n2ccnc2)c2ccc(Cl)c(Cl)c2n1 [I-680] |
| – | < 2000 nM | < 2000 nM | – | O=C(O)COC[C@@H]1CCCN1c1cc(-n2ccnc2)c2ccc(Cl)c(Cl)c2n1 [I-666, (S)-2-((1-(7,8-dichloro-4-(1H-imidazol-1-yl)quinolin-2-yl)pyrrolidin-2-yl)methoxy)acetic acid] |
| < 2000 nM | < 2000 nM | – | – | O=C(O)CCOC[C@@H]1C[C@H]2C[C@H]2N1c1cc(-n2ccnc2)c2ccc(Cl)c(Cl)c2n1 [I-805] |
| – | < 2000 nM | < 2000 nM | – | O=C(O)CCOCC1CC(F)CN(c2cc(-n3ccnc3)c3ccc(Cl)c(Cl)c3n2)C1 (centres unmarked) [I-749] |
| – | < 2000 nM | 2000 to 10000 nM | – | O=C(O)CCOC[C@@H]1C[C@H](O)CN1c1cc(-n2ccnc2)c2ccc(Cl)c(Cl)c2n1 [I-702] |
| < 2000 nM | < 2000 nM | – | – | O=C(O)CCOC[C@@H]1CCCN1c1cc(-n2ccnc2)c2cc(Br)c(Cl)c(Cl)c2n1 [I-857] |
| < 2000 nM | < 2000 nM | – | – | O=C(O)CCOCCN(c1cc(-n2ccnc2)c2ccc(Cl)c(Cl)c2n1)C1CC1 [I-834] |
| – | < 2000 nM | > 10000 nM | – | O=C(O)COCC[C@@H]1CC[C@@H](C(=O)O)N1c1cc(-n2ccnc2)c2ccc(Cl)c(Cl)c2n1 [I-715, (2S,5S)-5-(2-(carboxymethoxy)ethyl)-1-(7,8-dichloro-4-(1H-imidazol-1-yl)quinolin-2-yl)pyrrolidine-2-carboxylic acid] |
| < 2000 nM | < 2000 nM | – | – | O=C(O)CCOCC1CN(c2cc(-n3ccnc3)c3ccc(Cl)c(Cl)c3n2)CCCO1 (centres unmarked) [I-867] |
| – | < 2000 nM | > 10000 nM | – | O=C(O)C(F)COC[C@@H]1CCCN1c1cc(-n2ccnc2)c2ccc(Cl)c(Cl)c2n1 (stereo partly drawn) [I-716, 3-(((S)-1-(7,8-dichloro-4-(1H-imidazol-1-yl)quinolin-2-yl)pyrrolidin-2-yl)methoxy)-2-fluoropropanoic acid] |
| – | < 2000 nM | < 2000 nM | – | O=C(O)CCCC[C@@H]1CCCN1c1cc(-c2cn[nH]c2)c2ccc(Cl)c(Cl)c2n1 [I-684] |
| – | < 2000 nM | 2000 to 10000 nM | – | COC(=O)COC[C@@H]1CN(c2cc(-c3cn[nH]c3)c3ccc(Cl)c(Cl)c3n2)CCO1 [I-751] |
| – | 2000 to 30000 nM | < 2000 nM | – | COC(=O)/C=C/C[C@@H]1CCCN1c1cc(-n2ccnc2)c2ccc(Cl)c(Cl)c2n1 [I-686] |
| – | < 2000 nM | < 2000 nM | – | O=C(O)CCOC[C@@H]1CCCN(c2cc(-c3cn[nH]c3)c3ccc(Cl)c(Cl)c3n2)C1 [I-747] |
| – | 2000 to 30000 nM | > 10000 nM | – | COC(=O)/C=C/[C@@H]1CCCN1c1cc(-n2ccnc2)c2ccc(Cl)c(Cl)c2n1 [I-687] |
| – | < 2000 nM | < 2000 nM | – | O=C(O)CCC[C@@H]1CCCN1c1cc(-n2ccnc2)c2ccc(Cl)c(Cl)c2n1 [I-682] |
| < 2000 nM | < 2000 nM | – | – | C[C@H]1CC[C@@H](COCCC(=O)O)N1c1cc(-n2ccnc2)c2ccc(Cl)c(Cl)c2n1 [I-810] |
| – | 2000 to 30000 nM | < 2000 nM | – | COC(=O)CCOCC[C@@H]1CCCN1c1cc(-n2ccnc2)c2ccc(Cl)c(Cl)c2n1 [I-673] |
| – | 2000 to 30000 nM | < 2000 nM | – | COC(=O)CC(C)OC[C@@H]1CCCN1c1cc(-n2ccnc2)c2ccc(Cl)c(Cl)c2n1 (some centres unmarked) [I-718] |
| – | < 2000 nM | < 2000 nM | – | O=C(O)CCOCCC[C@@H]1CCCN1c1cc(-n2ccnc2)c2ccc(Cl)c(Cl)c2n1 [I-677] |
| < 2000 nM | < 2000 nM | – | – | O=C(O)CCOC[C@@H]1CCCN1c1cc(-n2ccnc2)c2ccc(Cl)c(Br)c2n1 [I-862] |
| > 10000 nM | < 2000 nM | – | – | COc1c(Cl)ccc2c(-n3ccnc3)cc(N3CCC[C@H]3COCCC(=O)O)nc12 [I-860] |
| – | < 2000 nM | 2000 to 10000 nM | – | O=C(O)c1cnn(CC[C@@H]2CCCN2c2cc(-n3ccnc3)c3ccc(Cl)c(Cl)c3n2)c1 [I-730] |
| < 2000 nM | < 2000 nM | – | – | O=C(O)CCOC[C@@H]1C[C@@H](C2CCCCC2)CN1c1cc(-n2ccnc2)c2ccc(Cl)c(Cl)c2n1 [I-803] |
| < 2000 nM | < 2000 nM | – | – | O=C(O)CCOC[C@@H]1C[C@@H]2CCCC[C@@H]2N1c1cc(-n2ccnc2)c2ccc(Cl)c(Cl)c2n1 [I-808] |
| 2000 to 10000 nM | < 2000 nM | – | – | O=C(O)CCOCC1CCCCN(c2cc(-n3ccnc3)c3ccc(Cl)c(Cl)c3n2)C1 (centres unmarked) [I-866] |
| – | < 2000 nM | > 10000 nM | – | O=C(O)COC[C@H](O)[C@@H]1CCCN1c1cc(-n2ccnc2)c2ccc(Cl)c(Cl)c2n1 [I-726, 2-((R)-2-((S)-1-(7,8-dichloro-4-(1H-imidazol-1-yl)quinolin-2-yl)pyrrolidin-2-yl)-2-hydroxyethoxy)acetic acid] |
